From ChEMBL document CHEMBL3045295, “Antifeedant triterpenoids from the seeds and bark of Lansium domesticum cv Kokossan (Meliaceae)” (2011) come the findings set out here.

This experiment deals with Henosepilachna vigintioctopunctata. The experiment is described as follows: Antifeedant activity against fourth-instar larvae of Henosepilachna vigintioctopunctata on Solanum nigrum leaves at 1 % relative to control. The format is functional.
Regarding `CC1=CC[C@H]2C(C)(C)C(=O)CC[C@]2(C)[C@H]1CC[C@H]1C(C)(O)CC[C@H]2C(C)(C)C(=O)CC[C@]12C` (stereo not given in full) [Kokosanolide B], the AFI is 99%.
For `COC(=O)[C@@H]1O[C@]23O[C@H]4CC[C@]5(C)C(=CC(=O)O[C@H]5c5ccoc5)[C@H]4C[C@]2(O)CC(C)(C)[C@H]1[C@@H]3C` [KOKOSANOLIDE C] the value was 0%.
For `C=C1CC[C@H]2C(C)(C)C(=O)CC[C@]2(C)[C@H]1CC[C@H]1C(C)=CC[C@H]2C(C)(C)C(=O)CC[C@]12C` the value was 56%; for `CC1=CC[C@H]2C(C)(C)C(=O)CC[C@]2(C)[C@H]1CC[C@H]1C(C)=CC[C@H]2C(C)(C)C(=O)CC[C@]12C`, 85%.
For `COC(=O)[C@@H]1O[C@]23O[C@H]4CC[C@]5(C)C(=CC(=O)O[C@H]5c5ccoc5)[C@H]4C[C@]2(O)C(=O)C(C)(C)[C@H]1[C@@H]3C` [KOKOSANOLIDE A] the value was 78%.
